Results: US7585895B2, “Therapeutic substituted cyclopentanes” (Allergan, Inc., priority 2005, dated 2009)

How the values were obtained:
Type in all cases: cell-based
[1] = target: T1, hDP/Gqs5 (Homo sapiens, UniProt Q13258); assay: FLIPR calcium signal, DP; details: HEK-293(EBNA)
T1 construct: expressed in transfected cells
T1 sequence (Q13258 1-359): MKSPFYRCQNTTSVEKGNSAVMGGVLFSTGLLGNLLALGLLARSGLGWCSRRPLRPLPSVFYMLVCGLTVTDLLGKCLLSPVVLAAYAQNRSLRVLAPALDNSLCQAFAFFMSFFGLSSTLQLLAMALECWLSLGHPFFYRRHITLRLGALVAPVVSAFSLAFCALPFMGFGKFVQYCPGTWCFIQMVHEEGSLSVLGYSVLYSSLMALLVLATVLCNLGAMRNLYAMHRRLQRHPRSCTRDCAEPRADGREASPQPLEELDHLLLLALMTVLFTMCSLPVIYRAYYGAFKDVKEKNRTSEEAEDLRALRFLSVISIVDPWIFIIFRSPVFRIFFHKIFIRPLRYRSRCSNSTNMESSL
Description: (§1) HEK-293(EBNA) cells, stably expressing one type or subtype of recombinant human prostaglandin receptors (prostaglandin receptors expressed: hDP/Gqs5; hEP1; hEP2/Gqs5; hEP3A/Gqi5; hEP4/Gqs5; hFP; hIP; hTP), were cultured in 100 mm culture dishes in high-glucose DMEM medium containing 10% fetal bovine serum, 2 mM 1-glutamine, 250 μg/ml geneticin (G418) and 200 μg/ml hygromycin B as selection markers, and 100 units/ml penicillin G, 100 μg/ml streptomycin and 0.25 μg/ml amphotericin B.
(§2) Cells were seeded at a density of 5×10^4 cells per well in Biocoat® Poly-D-lysine-coated black-wall, clear-bottom 96-well plates (Becton-Dickinson) and allowed to attach overnight in an incubator at 37° C. Cells were then washed two times with HBSS-HEPES buffer (Hanks Balanced Salt Solution without bicarbonate and phenol red, 20 mM HEPES, pH 7.4) using a Denley Cellwash plate washer (Labsystems). After 45 minutes of dye-loading in the dark, using the calcium-sensitive dye Fluo-4 AM at a final concentration of 2 μM, plates were washed four times with HBSS-HEPES buffer to remove excess dye leaving 100 μl in each well. Plates were re-equilibrated to 37° C. for a few minutes.
(§3) Cells were excited with an Argon laser at 488 nm, and emission was measured through a 510-570 nm bandwidth emission filter (FLIPR™, Molecular Devices, Sunnyvale, Calif.). Drug solution was added in a 50 μl volume to each well to give the desired final concentration. The peak increase in fluorescence intensity was recorded for each well. On each plate, four wells each served as negative (HBSS-HEPES buffer) and positive controls (standard agonists: BW245C (hDP); PGE2 (HEP1; hEP2/Gqs5; hEP3A/Gqi5; hEP4/Gqs5); PGF2α (hFP); carbacyclin (hIP); U-46619 (hTP), depending on receptor). The peak fluorescence change in each drug-containing well was then expressed relative to the controls.
(§4) Compounds were tested in a high-throughput (HTS) or concentration-response (CoRe) format. In the HTS format, forty-four compounds per plate were examined in duplicates at a concentration of 10^−5 M. To generate concentration-response curves, four compounds per plate were tested in duplicates in a concentration range between 10^−5 and 10^−11 M. The duplicate values were averaged. In either, HTS or CoRe format each compound was tested on at least 3 separate plates using cells from different passages to give an n≧3.

[2] = target: T2, hTP (Homo sapiens, UniProt P21731); assay: FLIPR calcium signal, TP; details: HEK-293(EBNA); for EC50: read-out: Ca2+ Signal-EC50 (nM) TP
T2 construct: expressed in transfected cells
T2 sequence (P21731 1-343): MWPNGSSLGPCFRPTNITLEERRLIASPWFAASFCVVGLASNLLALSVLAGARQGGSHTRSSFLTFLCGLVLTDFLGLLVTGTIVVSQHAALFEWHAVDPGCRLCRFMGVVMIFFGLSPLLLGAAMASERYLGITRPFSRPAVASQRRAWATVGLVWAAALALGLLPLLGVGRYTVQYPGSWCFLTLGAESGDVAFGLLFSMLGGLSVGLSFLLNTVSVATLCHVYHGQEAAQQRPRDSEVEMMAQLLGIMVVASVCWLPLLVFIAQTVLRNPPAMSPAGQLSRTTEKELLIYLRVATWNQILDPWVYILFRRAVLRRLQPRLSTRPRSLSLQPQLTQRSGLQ
Description: as §1, §2, §3, §4

[3] = target: T3, hEP2/Gqs5 (Homo sapiens, UniProt P43116); assay: FLIPR calcium signal, EP2; details: HEK-293(EBNA), value outside parentheses, read-out: Ca2+ Signal-EC50 (nM) EP2
T3 construct: expressed in transfected cells
T3 sequence (P43116 whole entry): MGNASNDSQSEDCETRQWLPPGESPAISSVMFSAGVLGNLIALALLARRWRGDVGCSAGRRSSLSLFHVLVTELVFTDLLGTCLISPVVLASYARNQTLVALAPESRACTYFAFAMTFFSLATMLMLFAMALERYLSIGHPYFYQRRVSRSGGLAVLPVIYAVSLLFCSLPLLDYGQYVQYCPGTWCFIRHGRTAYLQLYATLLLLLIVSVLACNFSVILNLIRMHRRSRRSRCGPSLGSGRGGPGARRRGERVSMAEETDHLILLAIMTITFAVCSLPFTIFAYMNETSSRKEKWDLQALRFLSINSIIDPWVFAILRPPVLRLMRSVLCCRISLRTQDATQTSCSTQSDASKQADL
Description: as §1, §2, §3, §4

[4] = target: T4, hIP (Homo sapiens, UniProt P43119); assay: FLIPR calcium signal, IP; details: HEK-293(EBNA); for EC50: read-out: Ca2+ Signal-EC50 (nM) IP
T4 construct: expressed in transfected cells
T4 sequence (P43119 whole entry): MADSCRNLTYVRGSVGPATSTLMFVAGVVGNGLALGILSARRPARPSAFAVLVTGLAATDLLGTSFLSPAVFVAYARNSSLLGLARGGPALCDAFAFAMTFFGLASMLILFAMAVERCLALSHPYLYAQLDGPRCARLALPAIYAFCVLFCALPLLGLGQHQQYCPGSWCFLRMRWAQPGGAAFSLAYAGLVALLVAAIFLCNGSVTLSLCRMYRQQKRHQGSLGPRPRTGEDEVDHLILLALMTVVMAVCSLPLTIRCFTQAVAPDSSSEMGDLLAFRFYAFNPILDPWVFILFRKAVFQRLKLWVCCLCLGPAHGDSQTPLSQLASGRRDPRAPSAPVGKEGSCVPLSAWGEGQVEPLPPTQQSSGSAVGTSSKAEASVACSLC
Description: as §1, §2, §3, §4

[5] = target: EP2 (Homo sapiens, UniProt P43116); assay: cAMP assay, HEK-EBNA cells expressing EP2; design: expressed in transfected cells; host or cells: HEK-EBNA; details: value in parentheses in EP2 column, read-out: EP2 EC50 (nM), measurement of cAMP (data in parentheses)
Chain of EP2 (P43116 whole entry): as the sequence (P43116 whole entry) above
Description: A 384-well drug plate was prepared to contain 6 test compounds, PGE2 and cAMP in 16 serial dilutions in triplicate, using a Biomek station. HEK-EBNA cells expressing a target PG receptor subtype (EP2 or EP4) were suspended in a stimulation buffer (HBSS, 0.1% BSA, 0.5 mM IBMX and 5 mM HEPES, pH 7.4) in a density of 10^4 cells/5 μl. The reaction was initiated by mixing 5 μL drug dilutions with 5 μl of HEK-EBNA cells in a well, carried out for 30 min at room temperature, and followed by the addition of 5 μl anti-cAMP acceptor beads in the control buffer with Tween-20 (25 mM NaCl, 0.03% Tween-20, 5 mM HEPES, pH7.4). After 30 min in the dark at room temperature, the mixtures were incubated with 15 μl biotinylated-cAMP/strepavidin donor beads in Lysis/Detection buffer (0.1% BSA, 0.3% Tween-20 and 5 mM HEPES, pH7.4) for 45 min at the room temperature. Fluorescence changes were read using a Fusion-alpha HT microplate reader.

[6] = target: T5, hEP3A/Gqi5 (Homo sapiens, UniProt P43115); assay: FLIPR calcium signal, EP3; details: HEK-293(EBNA); for EC50: read-out: Ca2+ Signal-EC50 (nM) EP3
T5 construct: expressed in transfected cells
T5 sequence (P43115 1-390): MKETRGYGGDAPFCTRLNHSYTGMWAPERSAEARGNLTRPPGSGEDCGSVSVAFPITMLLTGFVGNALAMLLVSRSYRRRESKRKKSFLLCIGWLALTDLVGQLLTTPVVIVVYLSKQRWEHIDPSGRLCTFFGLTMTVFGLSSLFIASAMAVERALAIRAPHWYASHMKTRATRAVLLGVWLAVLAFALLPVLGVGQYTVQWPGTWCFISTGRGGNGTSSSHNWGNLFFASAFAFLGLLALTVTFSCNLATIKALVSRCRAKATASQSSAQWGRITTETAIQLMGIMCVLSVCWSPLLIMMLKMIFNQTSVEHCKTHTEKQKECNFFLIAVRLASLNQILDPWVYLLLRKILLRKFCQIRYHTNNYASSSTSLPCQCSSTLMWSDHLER
Description: as §1, §2, §3, §4

Row | Ca2+ Signal-EC50 (nM) DP [1] | Ca2+ Signal-EC50 (nM) TP [2] | EC50 [3] [nM] | Ca2+ Signal-EC50 (nM) IP [4] | EC50 [5] [nM] | EC50 [6] [nM] | Ca2+ Signal-EC50 (nM) EP3 [6] | EC50 [4] [nM] | EC50 [2] [nM] | Structure (SMILES)
1 | not active | not active | 58 | not active | 12 | 5930 | – | – | – | CCCCCCC(O)c1ccc([C@@H]2[C@@H](C/C=C\CCCC(=O)O)[C@H](Cl)C[C@H]2O)cc1 (stereo partly drawn) [Entry 25, (Z)-7-{(1R,2S,3R,5R)-5-Chloro-3-hydroxy-2-[4-(1-hydroxy-heptyl)-phenyl]-cyclopentyl}-hept-5-enoic acid]
2 | not active | not active | – | not active | 10 | – | not active | – | – | CCCCC(O)c1ccc([C@@H]2[C@@H](C/C=C\CCCC(=O)O)[C@H](Cl)C[C@H]2O)cc1 (mixture of isomers) [Entry 27, (Z)-7-{(1R,2S,3R,5R)-5-Chloro-3-hydroxy-2-[4-(1-hydroxy-pentyl)-phenyl]-cyclopentyl}-hept-5-enoic acid]
3 | not active | not active | 544 | not active | 19 | 1300 | – | – | – | CCCCCC(O)C(C)(C)c1ccc([C@@H]2[C@@H](C/C=C\CCCC(=O)O)[C@H](Cl)C[C@H]2O)cc1 (stereo partly drawn) [Entry 31, (Z)-7-{(1R,2S,3R,5R)-5-Chloro-3-hydroxy-2-[4-(2-hydroxy-1,1-dimethyl-heptyl)-phenyl]-cyclopentyl}-hept-5-enoic acid]
4 | not active | not active | 548 | not active | 125 | 13700 | – | – | – | O=C(O)CCC/C=C\C[C@@H]1[C@@H](c2ccc(C(O)CCc3ccccc3)cc2)[C@H](O)C[C@H]1Cl (stereo partly drawn) [Entry 23, (Z)-7-{(1R,2S,3R,5R)-5-Chloro-3-hydroxy-2-[4-(1-hydroxy-3-phenyl-propyl)-phenyl]-cyclopentyl}-hept-5-enoic acid]
5 | not active | not active | 26 | not active | 27 | – | not active | – | – | CCCCCCc1ccc([C@@H]2[C@@H](C/C=C\CCCC(=O)O)[C@H](Cl)C[C@H]2O)cc1 [Entry 33, (Z)-7-[(1R,2S,3R,5R)-5-Chloro-2-(4-hexyl-phenyl)-3-hydroxy-cyclopentyl]-hept-5-enoic acid]
6 | – | not active | 142 | – | 9 | – | not active | 1650 | – | O=C(O)CCC/C=C\C[C@@H]1[C@@H](c2ccc(C(O)c3ccccc3)cc2)[C@H](O)C[C@H]1Cl (stereo partly drawn) [Entry 28, (Z)-7-{(1R,2S,3R,5R)-5-Chloro-3-hydroxy-2-[4-(hydroxy-phenyl-methyl)-phenyl]-cyclopentyl}-hept-5-enoic acid]
7 | not active | not active | 11 | not active | 3 | 3000 | – | – | – | CCCCCC(O)c1ccc([C@@H]2[C@@H](C/C=C\CCCC(=O)O)[C@H](Cl)C[C@H]2O)cc1 (single isomer, unassigned) [Entry 13]
8 | not active | – | 16 | – | 5 | 25 | – | 3280 | 6930 | CCCCCC(O)c1ccc([C@@H]2[C@@H](C/C=C\CCCC(=O)O)[C@H](Cl)C[C@@H]2O)cc1 (stereo partly drawn) [Entry 34, (Z)-7-{(1R,2S,3S,5R)-5-Chloro-3-hydroxy-2-[4-(1-hydroxy-hexyl)-phenyl]-cyclopentyl}-hept-5-enoic acid]
9 | not active | not active | 619 | not active | 1060 | – | not active | – | – | CCCCCC(O)c1ccc([C@@H]2[C@@H](CCCc3ncc(C(=O)O)s3)[C@H](Cl)C[C@H]2O)cc1 (stereo partly drawn) [Entry 5, 2-(3-{(1R,2S,3R,5R)-5-Chloro-3-hydroxy-2-[4-(1-hydroxy-hexyl)-phenyl]-cyclopentyl}-propyl)-thiazole-5-carboxylic acid]
10 | not active | not active | 119 | – | 38 | 37 | – | 8490 | – | CCCCCC(O)c1cccc([C@@H]2[C@@H](C/C=C\CCCC(=O)O)[C@H](Cl)C[C@H]2O)c1 (stereo partly drawn) [Entry 29, (Z)-7-{(1R,2S,3R,5R)-5-Chloro-3-hydroxy-2-[3-(1-hydroxy-hexyl)-phenyl]-cyclopentyl}-hept-5-enoic acid]
11 | not active | – | 68 | – | 10 | 23 | – | 2060 | 3750 | CCCCC(O)c1cccc([C@@H]2[C@@H](C/C=C\CCCC(=O)O)[C@H](Cl)C[C@H]2O)c1 (stereo partly drawn) [Entry 30, (Z)-7-{(1R,2S,3R,5R)-5-Chloro-3-hydroxy-2-[3-(1-hydroxy-pentyl)-phenyl]-cyclopentyl}-hept-5-enoic acid]
